Measured values taken from paper PMC8512562, “Semisynthetic Derivatives of Selected Amaryllidaceae Alkaloids as a New Class of Antimycobacterial Agents” (Molecules, 2021).
≈ marks a conversion by molar mass, not a printed value. Where two headings read alike, the source gives them in different places.

Columns and labels:
[1] = tested on: Mycobacterium tuberculosis H37Ra; test: Antimycobacterial screening (microdilution broth, resazurin) against M. tuberculosis H37Ra; assay type: cell-based; conditions: for MIC: Mycobacterium tuberculosis; for MIC values for standards, range, M. tuberculosis: range of MIC of the standards in the assay
[2] = tested on: Mycobacterium aurum DSM 43999 (ATCC 23366); test: Antimycobacterial screening (microdilution broth, resazurin) against M. aurum; assay type: cell-based; conditions: for MIC: Mycolicibacterium aurum, read-out: MIC M. aurum; for MIC values for standards, range, M. aurum: range of MIC of the standards in the assay
[3] = tested on: Mycobacterium smegmatis DSM 43465 (ATCC 607); test: Antimycobacterial screening (microdilution broth, resazurin) against M. smegmatis; assay type: cell-based; conditions: for MIC: Mycolicibacterium smegmatis, read-out: MIC M. smegmatis; for MIC values for standards, range, M. smegmatis: range of MIC of the standards in the assay
HepG2 cells = test: cells; assay type: cell-based, Human; conditions: for IC50: Homo sapiens, HepG2, MTT, 24 h incubation
[4] = tested on: M. tuberculosis H37Ra, M. aurum and M. smegmatis; test: Antimycobacterial screening, MICs stated over all studied strains; assay type: cell-based, Mycobacterium; conditions: range over M. tuberculosis H37Ra, M. aurum, M. smegmatis; read-out: MICs against all studied strains
[5] = H37RA, read-out: MIC Mtb H37Ra (µM)
[6] = M. tuberculosis H37Ra, resazurin added after 120 h, read-out: MIC Mtb H37Ra
[7] = H37RA, 120 h, read-out: MIC Mtb H37Ra

Structure (SMILES) | MIC [1, 5] [µM] | MIC [1, 6] [µg/mL] | MIC values for standards, range, M. tuberculosis [1] [µg/mL] | MIC ([2]; resazurin added after 72 h) [µg/mL] | MIC values for standards, range, M. aurum [2] [µg/mL] | MIC ([3]; resazurin added after 48 h) [µg/mL] | MIC values for standards, range, M. smegmatis [3] [µg/mL] | MIC [1, 7] [µg/mL] | MIC ([2]; 72 h) [µg/mL] | SI (selectivity index) (HepG2 cells) | IC50 (HepG2 cells) [µM] | MIC [4] [µg/mL] | MIC ([3]; 48 h) [µg/mL]
O=C(O)c1cn(C2CC2)c2cc(N3CCNCC3)c(F)cc2c1=O [ciprofloxacin, reference compound] | 0.75 | 0.25 | 0.125 to 0.25 | 0.0156 (≈ 0.0472 µM) | 0.0078 to 0.0156 | 0.125 (≈ 0.377 µM) | 0.0625 to 0.125 |  |  |  |  |  | 
NNC(=O)c1ccncc1 [isoniazid, reference compound] | 1.82 |  | 0.125 to 0.25 |  | 1.95 to 3.91 | 31.2 (≈ 228 µM) | 7.81 to 15.625 | 0.25 | 3.91 (≈ 28.5 µM) |  |  |  | 
COc1ccc2c3c1O[C@H]1C[C@@H](OC(=O)c4ccc5ccccc5c4)C=C[C@@]31CCN(C)C2 [1r, 6-O-(2-naphthoyl)galanthamine] | 4.1 | 1.98 |  |  |  |  |  |  | 3.91 (≈ 8.86 µM) | 5.17 | 21.2 ± 3.8 | 1.98 to 7.81 (≈ 4.48 to 17.7 µM) | 7.81 (≈ 17.7 µM)
CCOc1cc(OCC)cc(C(=O)OC2C=C3C4CN(Cc5cc6c(cc54)OCO6)C3CC2OC)c1 (centres unmarked) [3e, 2-O-(3,5-diethoxybenzoyl)-3-O-methylpancracine] | 7.8 |  |  |  |  |  |  | 3.91 | 7.81 (≈ 15.8 µM) |  | 24.9 ± 1.7 |  | 15.6 (≈ 31.7 µM)
COc1ccc2c3c1O[C@H]1C[C@@H](O)C=C[C@@]31CCN(C)C2 [galanthamine (1), galanthamine, reference compound] | ≥ 1740 | ≥ 500 |  |  |  |  |  |  | ≥ 500 |  |  |  | ≥ 500
COc1ccc2c3c1O[C@H]1C[C@@H](OC(=O)c4cccc(C)c4)C=C[C@@]31CCN(C)C2 [1c, 6-O-(3-methylbenzoyl)galanthamine] | 35.4 | 15.6 |  |  |  |  |  |  | 15.6 (≈ 38.5 µM) |  |  |  | 31.2 (≈ 77.1 µM)
COc1ccc2c3c1O[C@H]1C[C@@H](OC(=O)c4ccccc4)C=C[C@@]31CCN(C)C2 [1a, 6-O-benzoylgalanthamine] | 79.8 | 31.2 |  |  |  | ≥ 500 |  |  | 31.2 (≈ 79.8 µM) |  |  |  | 
COc1ccc2c3c1O[C@H]1C[C@@H](OC(=O)c4ccco4)C=C[C@@]31CCN(C)C2 [1s, 6-O-(2-furoyl)galanthamine] | 150 | 62.5 |  |  |  |  |  |  | 250 (≈ 655 µM) |  |  |  | ≥ 500
COc1cc2c(cc1OC)[C@@]13C=C[C@@H](O)C[C@@H]1N(CC3)C2 [maritidine (5), maritidine] | ≥ 1740 | ≥ 500 |  |  |  |  |  |  | ≥ 500 |  |  |  | ≥ 500
COC1CC2C(=CC1OC(=O)c1c(C)cc(C)cc1C)C1CN2Cc2cc3c(cc21)OCO3 (centres unmarked) [3b, 2-O-(2,4,6-trimethylbenzoyl)-3-O-methylpancracine] | 16.1 | 7.81 |  |  |  |  |  |  | 7.81 (≈ 17.5 µM) | 1.94 | 31.2 ± 5.4 |  | 15.6 (≈ 34.9 µM)
O[C@H]1[C@H]2c3cc4c(cc3CN3CCC(=C[C@@H]1O)[C@H]23)OCO4 [lycorine (7), lycorine] | ≥ 1740 | ≥ 500 |  |  |  |  |  |  | ≥ 500 |  |  |  | ≥ 500
COc1ccc2c3c1O[C@H]1C[C@@H](OC(=O)c4cccc(C)c4C)C=C[C@@]31CCN(C)C2 [1e, 6-O-(2,3-dimethylbenzoyl)galanthamine] | 17.1 | 7.81 |  |  |  |  |  |  | 15.6 (≈ 37.2 µM) | 1.05 | 17.9 ± 2.6 |  | 31.2 (≈ 74.5 µM)
COc1cc2c(cc1OC)[C@@H](O)O[C@@H]1CC=C3CCN(C)[C@H]3[C@H]21 [lycorenine (9), lycorenine] | ≥ 394 | ≥ 125 |  |  |  |  |  |  | ≥ 125 |  |  |  | ≥ 125
COc1cc2c(cc1OC)[C@@H]1[C@H](O)[C@@H](OC)C=C3CCN(C2)[C@H]31 [galanthine (6), galanthine] | 788 | 250 |  |  |  |  |  |  | 250 (≈ 788 µM) |  |  |  | ≥ 500
COC1C=CC23c4cc5c(cc4CN(CC2O)C3C1)OCO5 (centres unmarked) [haemanthamine (2), haemanthamine] | ≥ 1660 | ≥ 500 |  |  |  |  |  |  | ≥ 500 |  |  |  | ≥ 500
CO[C@H]1/C=C/O[C@@]2(C)Oc3c(C)c(O)c4c(O)c(c(/C=N/N5CCN(C)CC5)c(O)c4c3C2=O)NC(=O)/C(C)=C\C=C\[C@H](C)[C@H](O)[C@@H](C)[C@@H](O)[C@@H](C)[C@H](OC(C)=O)[C@@H]1C [rifampicin, reference compound] | 0.0075 |  | 0.0039 to 0.0078 | 0.39 (≈ 0.474 µM) | 0.39 to 0.78 | 6.25 (≈ 7.59 µM) |  | 0.00625 |  |  |  |  | 
O[C@@H]1C=C[C@]23CCN(Cc4cc5c(cc42)OCO5)[C@H]3C1 [vittatine (4), vittatine] | ≥ 1840 | ≥ 500 |  |  |  |  |  |  | 250 (≈ 921 µM) |  |  |  | ≥ 500

Structure (SMILES) | MIC [1, 5] [µM] | MIC [1, 6] [µg/mL] | MIC values for standards, range, M. tuberculosis [1] [µg/mL] | MIC ([2]; resazurin added after 72 h) [µg/mL] | MIC values for standards, range, M. aurum [2] [µg/mL] | MIC ([3]; resazurin added after 48 h) [µg/mL] | MIC values for standards, range, M. smegmatis [3] [µg/mL] | MIC [1, 7] [µg/mL] | MIC ([2]; 72 h) [µg/mL] | SI (selectivity index) (HepG2 cells) | IC50 (HepG2 cells) [µM] | MIC [4] [µg/mL] | MIC ([3]; 48 h) [µg/mL]
COC1CC2C(=CC1O)C1CN2Cc2cc3c(cc21)OCO3 (centres unmarked) [3-O-methylpancracine (3), 3-O-methylpancracine] | ≥ 1660 | ≥ 500 |  |  |  |  |  |  | ≥ 500 |  |  |  | ≥ 500
COC1CC2C(=CC1OC(=O)c1ccc3ccccc3c1)C1CN2Cc2cc3c(cc21)OCO3 (centres unmarked) [3g, 2-O-(2-naphthoyl)-3-O-methylpancracine] | 31.8 | 15.6 |  |  |  |  |  |  | 15.6 (≈ 34.3 µM) |  |  |  | 15.6 (≈ 34.3 µM)
COC1CC2C(=CC1OC(=O)c1cc(C)cc(C)c1)C1CN2Cc2cc3c(cc21)OCO3 (centres unmarked) [3a, 2-O-(3,5-dimethylbenzoyl)-3-O-methylpancracine] | 16.6 | 7.81 |  |  |  |  |  |  | 7.81 (≈ 18 µM) | 2.45 | 40.6 ± 7.6 |  | 15.6 (≈ 36 µM)
CO[C@H]1C=C2[C@H]3C[N@@](Cc4cc5c(cc43)OCO5)[C@H]2C[C@@H]1O [montanine (8), montanine] | ≥ 1660 | ≥ 500 |  |  |  |  |  |  | ≥ 500 |  |  |  | ≥ 500
COc1ccc2c3c1O[C@H]1C[C@@H](OC(=O)c4cc(C)cc(C)c4)C=C[C@@]31CCN(C)C2 [1f, 6-O-(3,5-dimethylbenzoyl)galanthamine] | 17.1 | 7.81 |  |  |  |  |  |  | 7.81 (≈ 18.6 µM) | 1.03 | 17.6 ± 4.7 |  | 7.81 (≈ 18.6 µM)
COc1ccccc1C(=O)O[C@H]1C=C[C@@]23CCN(C)Cc4ccc(OC)c(c42)O[C@H]3C1 [1j, 6-O-(2-methoxybenzoyl)galanthamine] | 148 | 62.5 |  |  |  |  |  |  | 125 (≈ 297 µM) |  |  |  | 250 (≈ 593 µM)
COc1cccc(C(=O)O[C@H]2C=C[C@@]34CCN(C)Cc5ccc(OC)c(c53)O[C@H]4C2)c1 [1k, 6-O-(3-methoxybenzoyl)galanthamine] | 68.3 | 31.2 |  |  |  |  |  |  | 31.2 (≈ 74.1 µM) |  |  |  | 62.5 (≈ 148 µM)
COc1ccc(C(=O)O[C@H]2C=C[C@@]34CCN(C)Cc5ccc(OC)c(c53)O[C@H]4C2)cc1OC [1m, 6-O-(3,4-dimethoxybenzoyl)galanthamine] | 128 | 62.5 |  |  |  |  |  |  | 125 (≈ 277 µM) |  |  |  | 250 (≈ 554 µM)
COc1ccc2c3c1O[C@H]1C[C@@H](OC(=O)c4ccccc4C)C=C[C@@]31CCN(C)C2 [1b, 6-O-(2-methylbenzoyl)galanthamine] | 35.4 | 15.6 |  |  |  |  |  |  | 31.2 (≈ 77.1 µM) |  |  |  | 31.2 (≈ 77.1 µM)
COc1cc(OC)cc(C(=O)O[C@H]2C=C[C@@]34CCN(C)Cc5ccc(OC)c(c53)O[C@H]4C2)c1 [1n, 6-O-(3,5-dimethoxybenzoyl)galanthamine] | 34.6 | 15.6 |  |  |  |  |  |  | 31.2 (≈ 69.2 µM) |  |  |  | 31.2 (≈ 69.2 µM)
COc1ccc2c3c1O[C@H]1C[C@@H](OC(=O)c4ccc(C)cc4)C=C[C@@]31CCN(C)C2 [1d, 6-O-(4-methylbenzoyl)galanthamine] | 35.4 | 15.6 |  |  |  |  |  |  | 15.6 (≈ 38.5 µM) |  |  |  | 31.2 (≈ 77.1 µM)
COc1ccc(C(=O)O[C@H]2C=C[C@@]34CCN(C)Cc5ccc(OC)c(c53)O[C@H]4C2)cc1 [1l, 6-O-(4-methoxybenzoyl)galanthamine] | 68.3 | 31.2 |  |  |  |  |  |  | 31.2 (≈ 74.1 µM) |  |  |  | 62.5 (≈ 148 µM)
COC1CC2C(=CC1OC(=O)c1ccc(C(C)(C)C)cc1)C1CN2Cc2cc3c(cc21)OCO3 (centres unmarked) [3c, 2-O-(4-tert-butylbenzoyl)-3-O-methylpancracine] | 7.9 | 3.91 |  |  |  |  |  |  | 7.81 (≈ 16.9 µM) | 3.08 | 24.3 ± 2.4 |  | 7.81 (≈ 16.9 µM)
COc1ccc2c3c1O[C@H]1C[C@@H](OC(=O)c4c(C)cc(C)cc4C)C=C[C@@]31CCN(C)C2 [1g, 6-O-(2,4,6-trimethylbenzoyl)galanthamine] | 18 | 7.81 |  |  |  |  |  |  | 15.6 (≈ 36 µM) | 0.77 | 13.9 ± 0.8 |  | 31.2 (≈ 72.1 µM)
COc1cc(C(=O)O[C@H]2C=C[C@@]34CCN(C)Cc5ccc(OC)c(c53)O[C@H]4C2)cc(OC)c1OC [1o, 6-O-(3,4,5-trimethoxybenzoyl)galanthamine] | 121 | 62.5 |  |  |  |  |  |  | 125 (≈ 260 µM) |  |  |  | 250 (≈ 519 µM)
CCCCc1ccc(C(=O)OC2C=C3C4CN(Cc5cc6c(cc54)OCO6)C3CC2OC)cc1 (centres unmarked) [3d, 2-O-(4-butylbenzoyl)-3-O-methylpancracine] | 7.9 | 3.91 |  |  |  |  |  |  | 7.81 (≈ 16.9 µM) | 2.59 | 20.5 ± 0.7 |  | 7.81 (≈ 16.9 µM)
